Source: article PMC11849186 (BMC Biology, 2025)

Experiments:
[1] = biological target: T1, Pheromone binding protein 5 (Pbp5) (Bactrocera dorsalis, UniProt A0A6I9V7R6); assay: competitive fluorescence displacement of 1-NPN
T1 sequence (A0A6I9V7R6 21-147): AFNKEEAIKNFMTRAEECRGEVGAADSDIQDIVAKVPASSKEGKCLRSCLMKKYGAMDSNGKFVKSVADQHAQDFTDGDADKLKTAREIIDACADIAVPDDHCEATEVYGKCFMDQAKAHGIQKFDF

[2] = biological target: T2, Pheromone binding protein 5 (Pbp5) mutant (Bactrocera dorsalis, UniProt A0A6I9V7R6, F147A/F31A/F95A/I28A); assay: direct fluorescence binding assay
T2 sequence (A0A6I9V7R6 21-147 I28A/F31A/F95A/F147A): T1 sequence (A0A6I9V7R6 21-147)

[3] = biological target: T1, Pheromone binding protein 5 (Pbp5); assay: direct fluorescence binding assay

Row | Structure (SMILES) | Ki [1] [µM] | Kd [2] [µM] | Kd [3] [µM]
1 | Cc1cnc(C)c(C)n1 [TMP, trimethylpyrazine] | 0.224 | – | –
2 | Cc1nc(C)c(C)nc1C [TTMP, tetramethylpyrazine] | 0.21 | – | –
3 | c1ccc(Nc2cccc3ccccc23)cc1 [1-NPN, N-phenyl-1-naphthylamine] | – | 33.9 | 10.6
